{
  "source": "PubChem BioAssay AID1963826",
  "about": "(Molecular Pharmacology Branch, DTP, NCI, 2024);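 also: spheroids exposed to drugs for one week before readout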;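 as to viability, T/C: percent viability relative to DMSO vehicle control wells set as 100%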",
  "tested_on": "926638-142-R-J1-PDC complex spheroid viability",
  "experiment": "Anticancer human tumor 926638-142-R-J1-PDC patient-derived endometrial carcinoma cell line growth inhibition [POLQ]",
  "settings": "for IC50: curve of first compound; for viability, T/C: stronger effect = lower value",
  "how_it_was_run": "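PDC + HUVEC + MSC complex spheroids; POLQ inhibitors ± partner drugs; top conc. at/near clinical Cmax, else 10 microM (SN-38 1 microM), half-log dilutions; 37 degrees C, 5% CO2.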",
  "key": {"[1]": {"settings": "second compound 0.0316 µM, first compound 0.0316 µM"}, "[2]": {"settings": "second compound 0.0316 µM, first compound 0.1 µM"}, "[3]": {"settings": "second compound 0.0316 µM, first compound 0.316 µM"}, "[4]": {"settings": "second compound 0.0316 µM, first compound 1 µM"}, "[5]": {"settings": "second compound 0.0316 µM, first compound 3.16 µM"}, "[6]": {"settings": "second compound 0.0316 µM, first compound 10 µM"}, "[7]": {"settings": "second compound 0.1 µM, first compound 0.0316 µM"}, "[8]": {"settings": "second compound 0.1 µM, first compound 0.1 µM"}, "[9]": {"settings": "second compound 0.1 µM, first compound 0.316 µM"}, "[10]": {"settings": "second compound 0.1 µM, first compound 1 µM"}, "[11]": {"settings": "second compound 0.1 µM, first compound 3.16 µM"}, "[12]": {"settings": "second compound 0.1 µM, first compound 10 µM"}, "[13]": {"settings": "second compound 0.316 µM, first compound 0.0316 µM"}, "[14]": {"settings": "second compound 0.316 µM, first compound 0.1 µM"}, "[15]": {"settings": "second compound 0.316 µM, first compound 0.316 µM"}, "[16]": {"settings": "second compound 0.316 µM, first compound 1 µM"}, "[17]": {"settings": "second compound 0.316 µM, first compound 3.16 µM"}, "[18]": {"settings": "second compound 0.316 µM, first compound 10 µM"}, "[19]": {"settings": "second compound 1 µM, first compound 0.0316 µM"}, "[20]": {"settings": "second compound 1 µM, first compound 0.1 µM"}, "[21]": {"settings": "second compound 1 µM, first compound 0.316 µM"}, "[22]": {"settings": "second compound 1 µM, first compound 1 µM"}, "[23]": {"settings": "second compound 1 µM, first compound 3.16 µM"}, "[24]": {"settings": "second compound 1 µM, first compound 10 µM"}, "[25]": {"settings": "second compound 3.16 µM, first compound 0.0316 µM"}, "[26]": {"settings": "second compound 3.16 µM, first compound 0.1 µM"}, "[27]": {"settings": "second compound 3.16 µM, first compound 0.316 µM"}, "[28]": {"settings": "second compound 3.16 µM, first compound 1 µM"}, "[29]": {"settings": "second compound 3.16 µM, first compound 3.16 µM"}, "[30]": {"settings": "second compound 3.16 µM, first compound 10 µM"}, "[31]": {"settings": "second compound 10 µM, first compound 0.0316 µM"}, "[32]": {"settings": "second compound 10 µM, first compound 0.1 µM"}, "[33]": {"settings": "second compound 10 µM, first compound 0.316 µM"}, "[34]": {"settings": "second compound 10 µM, first compound 1 µM"}, "[35]": {"settings": "second compound 10 µM, first compound 3.16 µM"}, "[36]": {"settings": "second compound 10 µM, first compound 10 µM"}},
  "data": [
    {"smiles": "O=C(Nc1ccc(O)c(NS(=O)(=O)c2ccc(F)cc2)c1)c1ccc(-c2ccccc2)cc1", "note": "+ Nc1ccc(C#CCN(C(=O)Cc2ncc(C(F)(F)F)cc2C(F)(F)F)c2ccc(F)cc2)nn1", "values": [
      {"measurement": "IC50", "setting": "second compound 0.0316 µM", "value": "> 10", "unit": "µM"},
      {"measurement": "IC50", "setting": "second compound 0.1 µM", "value": "> 10", "unit": "µM"},
      {"measurement": "IC50", "setting": "second compound 0.316 µM", "value": "> 10", "unit": "µM"},
      {"measurement": "IC50", "setting": "second compound 1 µM", "value": "> 10", "unit": "µM"},
      {"measurement": "IC50", "setting": "second compound 3.16 µM", "value": "> 10", "unit": "µM"},
      {"measurement": "IC50", "setting": "second compound 10 µM", "value": "> 10", "unit": "µM"},
      {"measurement": "viability, T/C", "setting": "[1]", "value": 106, "unit": "%"},
      {"measurement": "viability, T/C", "setting": "[2]", "value": 101, "unit": "%"},
      {"measurement": "viability, T/C", "setting": "[3]", "value": 80.8, "unit": "%"},
      {"measurement": "viability, T/C", "setting": "[4]", "value": 110, "unit": "%"},
      {"measurement": "viability, T/C", "setting": "[5]", "value": 95.7, "unit": "%"},
      {"measurement": "viability, T/C", "setting": "[6]", "value": 82.8, "unit": "%"},
      {"measurement": "viability, T/C", "setting": "[7]", "value": 105, "unit": "%"},
      {"measurement": "viability, T/C", "setting": "[8]", "value": 103, "unit": "%"},
      {"measurement": "viability, T/C", "setting": "[9]", "value": 107, "unit": "%"},
      {"measurement": "viability, T/C", "setting": "[10]", "value": 108, "unit": "%"},
      {"measurement": "viability, T/C", "setting": "[11]", "value": 96.4, "unit": "%"},
      {"measurement": "viability, T/C", "setting": "[12]", "value": 81.3, "unit": "%"},
      {"measurement": "viability, T/C", "setting": "[13]", "value": 114, "unit": "%"},
      {"measurement": "viability, T/C", "setting": "[14]", "value": 102, "unit": "%"},
      {"measurement": "viability, T/C", "setting": "[15]", "value": 99.5, "unit": "%"},
      {"measurement": "viability, T/C", "setting": "[16]", "value": 116, "unit": "%"},
      {"measurement": "viability, T/C", "setting": "[17]", "value": 109, "unit": "%"},
      {"measurement": "viability, T/C", "setting": "[18]", "value": 81.1, "unit": "%"},
      {"measurement": "viability, T/C", "setting": "[19]", "value": 98, "unit": "%"},
      {"measurement": "viability, T/C", "setting": "[20]", "value": 106, "unit": "%"},
      {"measurement": "viability, T/C", "setting": "[21]", "value": 103, "unit": "%"},
      {"measurement": "viability, T/C", "setting": "[22]", "value": 105, "unit": "%"},
      {"measurement": "viability, T/C", "setting": "[23]", "value": 105, "unit": "%"},
      {"measurement": "viability, T/C", "setting": "[24]", "value": 71.9, "unit": "%"},
      {"measurement": "viability, T/C", "setting": "[25]", "value": 100, "unit": "%"},
      {"measurement": "viability, T/C", "setting": "[26]", "value": 82.4, "unit": "%"},
      {"measurement": "viability, T/C", "setting": "[27]", "value": 96.1, "unit": "%"},
      {"measurement": "viability, T/C", "setting": "[28]", "value": 100, "unit": "%"},
      {"measurement": "viability, T/C", "setting": "[29]", "value": 106, "unit": "%"},
      {"measurement": "viability, T/C", "setting": "[30]", "value": 67.6, "unit": "%"},
      {"measurement": "viability, T/C", "setting": "[31]", "value": 92.2, "unit": "%"},
      {"measurement": "viability, T/C", "setting": "[32]", "value": 92.8, "unit": "%"},
      {"measurement": "viability, T/C", "setting": "[33]", "value": 89.5, "unit": "%"},
      {"measurement": "viability, T/C", "setting": "[34]", "value": 104, "unit": "%"},
      {"measurement": "viability, T/C", "setting": "[35]", "value": 104, "unit": "%"},
      {"measurement": "viability, T/C", "setting": "[36]", "value": 72.5, "unit": "%"}
    ]},
    {"smiles": "O=C(c1cc(Cc2n[nH]c(=O)c3ccccc23)ccc1F)N1CCN(C(=O)C2CC2)CC1", "note": "+ Nc1ccc(C#CCN(C(=O)Cc2ncc(C(F)(F)F)cc2C(F)(F)F)c2ccc(F)cc2)nn1", "values": [
      {"measurement": "IC50", "setting": "second compound 0.0316 µM", "value": "> 10", "unit": "µM"},
      {"measurement": "IC50", "setting": "second compound 0.1 µM", "value": "> 10", "unit": "µM"},
      {"measurement": "IC50", "setting": "second compound 0.316 µM", "value": "> 10", "unit": "µM"},
      {"measurement": "IC50", "setting": "second compound 1 µM", "value": "> 10", "unit": "µM"},
      {"measurement": "IC50", "setting": "second compound 3.16 µM", "value": "> 10", "unit": "µM"},
      {"measurement": "IC50", "setting": "second compound 10 µM", "value": "> 10", "unit": "µM"},
      {"measurement": "viability, T/C", "setting": "[1]", "value": 82.5, "unit": "%"},
      {"measurement": "viability, T/C", "setting": "[2]", "value": 96.2, "unit": "%"},
      {"measurement": "viability, T/C", "setting": "[3]", "value": 84.5, "unit": "%"},
      {"measurement": "viability, T/C", "setting": "[4]", "value": 94.9, "unit": "%"},
      {"measurement": "viability, T/C", "setting": "[5]", "value": 81.9, "unit": "%"},
      {"measurement": "viability, T/C", "setting": "[6]", "value": 80.4, "unit": "%"},
      {"measurement": "viability, T/C", "setting": "[7]", "value": 101, "unit": "%"},
      {"measurement": "viability, T/C", "setting": "[8]", "value": 110, "unit": "%"},
      {"measurement": "viability, T/C", "setting": "[9]", "value": 86.5, "unit": "%"},
      {"measurement": "viability, T/C", "setting": "[10]", "value": 88.2, "unit": "%"},
      {"measurement": "viability, T/C", "setting": "[11]", "value": 80.7, "unit": "%"},
      {"measurement": "viability, T/C", "setting": "[12]", "value": 73.8, "unit": "%"},
      {"measurement": "viability, T/C", "setting": "[13]", "value": 100, "unit": "%"},
      {"measurement": "viability, T/C", "setting": "[14]", "value": 93.8, "unit": "%"},
      {"measurement": "viability, T/C", "setting": "[15]", "value": 89.7, "unit": "%"},
      {"measurement": "viability, T/C", "setting": "[16]", "value": 99, "unit": "%"},
      {"measurement": "viability, T/C", "setting": "[17]", "value": 82.8, "unit": "%"},
      {"measurement": "viability, T/C", "setting": "[18]", "value": 77.8, "unit": "%"},
      {"measurement": "viability, T/C", "setting": "[19]", "value": 97.5, "unit": "%"},
      {"measurement": "viability, T/C", "setting": "[20]", "value": 90.6, "unit": "%"},
      {"measurement": "viability, T/C", "setting": "[21]", "value": 85, "unit": "%"},
      {"measurement": "viability, T/C", "setting": "[22]", "value": 83.2, "unit": "%"},
      {"measurement": "viability, T/C", "setting": "[23]", "value": 82, "unit": "%"},
      {"measurement": "viability, T/C", "setting": "[24]", "value": 69.3, "unit": "%"},
      {"measurement": "viability, T/C", "setting": "[25]", "value": 86.3, "unit": "%"},
      {"measurement": "viability, T/C", "setting": "[26]", "value": 89.9, "unit": "%"},
      {"measurement": "viability, T/C", "setting": "[27]", "value": 91.4, "unit": "%"},
      {"measurement": "viability, T/C", "setting": "[28]", "value": 87.6, "unit": "%"},
      {"measurement": "viability, T/C", "setting": "[29]", "value": 98.3, "unit": "%"},
      {"measurement": "viability, T/C", "setting": "[30]", "value": 81.6, "unit": "%"},
      {"measurement": "viability, T/C", "setting": "[31]", "value": 87.6, "unit": "%"},
      {"measurement": "viability, T/C", "setting": "[32]", "value": 85.8, "unit": "%"},
      {"measurement": "viability, T/C", "setting": "[33]", "value": 80.1, "unit": "%"},
      {"measurement": "viability, T/C", "setting": "[34]", "value": 73.7, "unit": "%"},
      {"measurement": "viability, T/C", "setting": "[35]", "value": 81.5, "unit": "%"},
      {"measurement": "viability, T/C", "setting": "[36]", "value": 66.1, "unit": "%"}
    ]}
  ]
}
